# Laboratory results reported in ChEMBL document CHEMBL1130232, “Synthesis and biological evaluation of 4-(hydroxyalkyl)estradiols and related compounds” (J Med Chem, 1997).
# Key:
# Settings in all cases: mcf7
# Estrogen receptor [1] = molecular target: T1, Estrogen receptor (Homo sapiens, UniProt Q92731+P03372); test: Affinity for estrogen receptor of human MCF-7 cells; assay type: cell-based
# Estrogen receptor [2] = molecular target: T1, Estrogen receptor; test: Induction of pS2 Gene expression in human MCF-7 cells; assay type: functional, cell-based
# Estrogen receptor [3] = molecular target: T1, Estrogen receptor; test: Affinity for estrogen receptor of human MCF-7 cells at 10e-5 M; assay type: cell-based
smiles,measurement,setting,value
C[C@]12CC[C@@H]3c4ccc(O)c(CO)c4CC[C@H]3[C@@H]1CC[C@@H]2O,EC50,Estrogen receptor [1],364 nM
same,EC50,Estrogen receptor [2],11.7 nM
C[C@]12CC[C@@H]3c4ccc(O)c(CCO)c4CC[C@H]3[C@@H]1CC[C@@H]2O,EC50,Estrogen receptor [1],620 nM
same,EC50,Estrogen receptor [2],148 nM
C[C@]12CC[C@@H]3c4ccc(O)c(O)c4CC[C@H]3[C@@H]1CC[C@@H]2O,EC50,Estrogen receptor [1],506 nM
same,EC50,Estrogen receptor [2],65.4 nM
C[C@]12CC[C@@H]3c4ccc(O)c(CCN)c4CC[C@H]3[C@@H]1CC[C@@H]2O,EC50,Estrogen receptor [3],2500 nM
C[C@]12CC[C@@H]3c4ccc(O)c(CCCO)c4CC[C@H]3[C@@H]1CC[C@@H]2O,EC50,Estrogen receptor [1],3320 nM
same,EC50,Estrogen receptor [2],2950 nM
